In US10508109B2 (priority 2015, dated 2019):
Counter-ions that a name gives are not always drawn. Like-named read-outs stand apart in the source and are kept apart here.

Legend:
[1] = tested on: A549; assay: Cell-based assay, anti-proliferative activity (Cell Counting Kit-8, 72 hours); details: Homo sapiens, read-out: IC50 (μM) A549
Procedure, shortened: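 After compound exposure of cells in 96-well plates, growth was measured colorimetrically and converted into IC50 values.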

[2] = tested on: CCD-18Co; assay: as above; details: Homo sapiens, read-out: IC50 (μM) CCD-18Co
Procedure, shortened: (§1)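 CCK-8 growth read-out at 72 h post compound exposure; 96-well seeding. IC50 from 8-point dilution (0–100 micro-M, twofold steps from 1.5625 micro-M).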

[3] = tested on: HCT-116; assay: as above; details: Homo sapiens, read-out: IC50 (μM) HCT-116
Procedure, shortened: as §1

[4] = tested on: HFL1; assay: as above; details: Homo sapiens, read-out: IC50 (μM) HFL1
Procedure, shortened: as §1

[5] = tested on: PC14; assay: as above; details: Homo sapiens, read-out: IC50 (μM) PC14
Procedure, shortened: as §1

[6] = target: SUV39H2 (Homo sapiens (Human), UniProt Q9H5I1); details: read-out: IC50 (μM) Suv 39H2 assay
[7] = A549 cells, Cell Counting Kit-8, 72 hours
[8] = CCD-18Co cells, Cell Counting Kit-8, 72 hours
[9] = HCT-116 cells, Cell Counting Kit-8, 72 hours
[10] = HFL1 cells, Cell Counting Kit-8, 72 hours
[11] = PC-14, PC14 cells, Cell Counting Kit-8, 72 hours

SUV39H2, sequence (Q9H5I1 whole entry): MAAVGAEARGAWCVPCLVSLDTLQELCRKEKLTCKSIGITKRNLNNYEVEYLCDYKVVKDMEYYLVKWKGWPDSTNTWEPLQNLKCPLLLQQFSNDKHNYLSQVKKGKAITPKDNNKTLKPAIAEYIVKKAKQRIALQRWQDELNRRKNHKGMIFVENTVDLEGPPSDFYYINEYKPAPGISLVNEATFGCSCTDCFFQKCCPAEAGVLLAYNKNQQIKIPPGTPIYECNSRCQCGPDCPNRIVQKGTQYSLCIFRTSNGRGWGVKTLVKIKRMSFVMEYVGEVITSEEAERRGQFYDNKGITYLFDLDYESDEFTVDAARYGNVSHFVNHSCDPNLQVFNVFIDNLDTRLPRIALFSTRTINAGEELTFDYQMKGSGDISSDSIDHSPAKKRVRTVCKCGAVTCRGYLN

COc1cc(OC)c(-c2cn3ccc(N4CCN(CCO)CC4)cc3n2)cc1Cl [Example 43, 2-(4-(2-(5-chloro-2,4-dimethoxyphenyl)imidazo[1,2-a]pyridine-7-yl)piperazin-1-yl)ethanol dihydrochloride]
IC50 ([1]; A549, 72 h): 14 µM
IC50 ([2]; CCD-18Co, 72 h): 11 µM
IC50 ([3]; HCT-116, 72 h): 14 µM
IC50 ([4]; HFL1, 72 h): 6.9 µM
IC50 ([5]; PC-14, 72 h): 9.8 µM
IC50 [6]: 0.00854 µM

COc1cc(OC)c(-c2cn3ccc(N4CC[C@H](NC(=O)OC(C)(C)C)C4)cc3n2)cc1Cl [Example 44, (S)-tert-butyl (1-(2-(5-chloro-2,4-dimethoxyphenyl)imidazo[1,2-a]pyridin-7-yl)-pyrrolidin-3-yl)carbamate]
IC50 [1, 7]: 3 µM
IC50 [2, 8]: 2.2 µM
IC50 [3, 9]: 3.4 µM
IC50 [4, 10]: 1.1 µM
IC50 [5, 11]: 1.6 µM
IC50 ([6]; enzyme assay): 0.00982 µM

COc1cc(OC)c(-c2cn3ccc(N4CC[C@H](N)C4)cc3n2)cc1Cl [Example 47, (S)-1-(2-(5-Chloro-2,4-dimethoxyphenyl)imidazo[1,2-a]pyridin-7-yl)pyrrolidin-3-amine hydrochloride]
IC50 ([1]; A549, 72 h): 3 µM
IC50 ([2]; CCD-18Co, 72 h): 3.5 µM
IC50 ([3]; HCT-116, 72 h): 3.4 µM
IC50 ([4]; HFL1, 72 h): 2 µM
IC50 ([5]; PC-14, 72 h): 4.5 µM
IC50 [6]: 0.00829 µM

COc1cc(OC)c(-c2cn3ccc(N4CCCC4)cc3n2)cc1C#N [Example 49, 2,4-dimethoxy-5-[7-(pyrrolidin-1-yl)imidazo[1,2-a]pyridin-2-yl]benzonitrile]
IC50 ([1]; A549, 72 h): 1.5 µM
IC50 ([2]; CCD-18Co, 72 h): 1.1 µM
IC50 ([3]; HCT-116, 72 h): 1.3 µM
IC50 ([4]; HFL1, 72 h): 0.8 µM
IC50 ([5]; PC-14, 72 h): 1.3 µM
IC50 ([6]; enzyme assay): 0.00371 µM

COc1cc(OC)c(-c2cn3ccc(N(C)CCN)cc3n2)cc1Cl [Example 54, N^1-(2-(5-chloro-2,4-dimethoxyphenyl)imidazo[1,2-a]yridine-7-yl)-N1-metylethane-1,2-diamine]
IC50 ([1]; A549, 72 h): 4.2 µM
IC50 ([2]; CCD-18Co, 72 h): 3.3 µM
IC50 ([3]; HCT-116, 72 h): 3.1 µM
IC50 ([4]; HFL1, 72 h): 2.5 µM
IC50 ([5]; PC-14, 72 h): 4.9 µM
IC50 ([6]; enzyme assay): 0.00585 µM

COc1cc(OC)c(-c2cn3cc(NCCN)c(N4CCCC4)cc3n2)cc1Cl [Example 60, N^1-(2-(5-chloro-2,4-dimethoxyphenyl)-7-(pyrrolidin-1-yl)imidazo[1,2-a]-pyridin-6-yl)ethane-1,2-diamine]
IC50 ([1]; A549, 72 h): 6.8 µM
IC50 ([2]; CCD-18Co, 72 h): 6 µM
IC50 ([3]; HCT-116, 72 h): 6.8 µM
IC50 ([4]; HFL1, 72 h): 2 µM
IC50 ([5]; PC-14, 72 h): 2.6 µM
IC50 ([6]; enzyme assay): 0.0094 µM

COc1cc(OC)c(-c2cn3ccc(N4CCC(CCNC(=O)OC(C)(C)C)CC4)nc3n2)cc1Cl [Example 61, tert-butyl (2-{1-[2-(5-chloro-2,4-dimethoxyphenyl)imidazo[1,2-a]pyrimidin-7-yl]piperidin-4-yl}-ethyl)carbamate]
IC50 [1, 7]: 4.5 µM
IC50 [2, 8]: 4.3 µM
IC50 [3, 9]: 4.1 µM
IC50 [4, 10]: 3.4 µM
IC50 [5, 11]: 1.7 µM
IC50 ([6]; enzyme assay): 0.00831 µM

COc1cc(OC)c(-c2cn3ccc(N4CCC(NS(=O)(=O)C5CC5)C4)cc3n2)cc1Cl (stereo not drawn) [Example 63, N-(1-(2-(5-chloro-2,4-dimethoxyphenyl)imidazo[1,2-a]pyridine-7-yl)pyrrolidin-3-yl)cyclopropanesulfonamide]
IC50 [1, 7]: 3 µM
IC50 [2, 8]: 3.8 µM
IC50 [3, 9]: 1.6 µM
IC50 [4, 10]: 1.7 µM
IC50 [5, 11]: 2.1 µM
IC50 ([6]; enzyme assay): 0.00395 µM

COc1cc(OC)c(-c2cn3ccc(N4CCC(NC(C)=O)C4)nc3n2)cc1Br (stereo not drawn) [Example 66]
IC50 [1, 7]: 25 µM
IC50 [2, 8]: 27 µM
IC50 [3, 9]: 18 µM
IC50 [4, 10]: 26 µM
IC50 [5, 11]: 16 µM
IC50 ([6]; enzyme assay): 0.00747 µM

COc1cc(OC)c(-c2cn3ccc(N4CCC(NC(=O)OC(C)(C)C)C4)cc3n2)cc1C#N (stereo not drawn) [Example 71, tert-butyl {1-[2-(5-cyano-2,4-dimethoxyphenyl)imidazo[1,2-a]pyridin-7-yl]pyrrolidin-3-yl}carbamate]
IC50 [1, 7]: 2.6 µM
IC50 [2, 8]: 3.2 µM
IC50 [3, 9]: 1.9 µM
IC50 [4, 10]: 1.6 µM
IC50 [5, 11]: 2 µM
IC50 ([6]; enzyme assay): 0.0075 µM

COc1cc(OC)c(-c2cn3ccc(N4CCC(CCN)CC4)cc3n2)cc1Cl [Example 72, 2-(1-(2-(5-chloro-2,4-dimethoxyphenyl)imidazo[1,2-a]pyridine-7-yl)piperidin-4-yl)ethanamine dihydrochloride]
IC50 ([1]; A549, 72 h): 5.3 µM
IC50 ([2]; CCD-18Co, 72 h): 7 µM
IC50 ([3]; HCT-116, 72 h): 4.9 µM
IC50 ([4]; HFL1, 72 h): 3.7 µM
IC50 ([5]; PC-14, 72 h): 2.5 µM
IC50 [6]: 0.00875 µM

COc1cc(OC)c(-c2cn3cc(NCCN)c(OC)cc3n2)cc1Cl [Example 75, N^1-(2-(5-chloro-2,4-dimethoxyphenyl)-7-methoxyimidazo[1,2-a]-pyridin-6-yl)ethane-1,2-diamine]
IC50 [1, 7]: 6.9 µM
IC50 [2, 8]: 7.2 µM
IC50 [3, 9]: 6.7 µM
IC50 [4, 10]: 3.5 µM
IC50 [5, 11]: 5.7 µM
IC50 ([6]; enzyme assay): 0.00271 µM

COc1cc(OC)c(-c2cn3cc(NCCN)c(C)cc3n2)cc1Cl [Example 78, N^1-(2-(5-chloro-2,4-dimethoxyphenyl)-7-methylimidazo[1,2-a]pyridin-6-yl)ethane-1,2-diamine]
IC50 ([1]; A549, 72 h): 6.3 µM
IC50 ([2]; CCD-18Co, 72 h): 5.7 µM
IC50 ([3]; HCT-116, 72 h): 5.6 µM
IC50 ([4]; HFL1, 72 h): 2.7 µM
IC50 ([5]; PC-14, 72 h): 6.1 µM
IC50 ([6]; enzyme assay): 0.00431 µM

COc1cc(OCCCN(C)C)c(-c2cn3ccc(N4CCCC4)cc3n2)cc1Cl [Example 80, 3-{4-chloro-5-methoxy-2-[7-(pyrrolidin-1-yl)imidazo[1,2-a]pyridin-2-yl]-phenoxy}-N,N-dimethylpropan-1-amine]
IC50 [1, 7]: 1.6 µM
IC50 [2, 8]: 1.8 µM
IC50 [3, 9]: 1.1 µM
IC50 [4, 10]: 0.85 µM
IC50 [5, 11]: 1.7 µM
IC50 ([6]; enzyme assay): 0.00531 µM

COc1cc(OCC2CC2)c(-c2cn3ccc(N4CCCC4)cc3n2)cc1Cl [Example 82, 2-(5-chloro-2-(cyclopropylmethoxy)-4-methoxyphenyl)-7-(pyrrolidin-1-yl)imidazo[1,2-a]pyridine]
IC50 [1, 7]: 3.5 µM
IC50 [2, 8]: 3.8 µM
IC50 [3, 9]: 3.2 µM
IC50 [4, 10]: 2 µM
IC50 [5, 11]: 4.7 µM
IC50 ([6]; enzyme assay): 0.00538 µM

COc1cc(OC)c(-c2cn3ccc(N4CCN(CCN(C)C)CC4)cc3n2)cc1Cl [Example 88, 2-(4-(2-(5-chloro-2,4-dimethoxyphenyl)imidazo[1,2-a]pyridin-7-yl)piperazin-1-yl)-N,N-dimethylethanamine]
IC50 [1, 7]: 3.3 µM
IC50 [2, 8]: 5.6 µM
IC50 [3, 9]: 3.9 µM
IC50 [4, 10]: 3 µM
IC50 [5, 11]: 2.9 µM
IC50 ([6]; enzyme assay): 0.00884 µM

COc1cc(OC)c(-c2cn3cc(NCCN)c(N4CCOCC4)cc3n2)cc1Cl [Example 89, N^1-(2-(5-chloro-2,4-dimethoxyphenyl)-7-morpholinoimidazo[1,2-a]-pyridin-6-yl)ethane-1,2-diamine]
IC50 [1, 7]: 3 µM
IC50 [2, 8]: 3 µM
IC50 [3, 9]: 4.4 µM
IC50 [4, 10]: 1.6 µM
IC50 [5, 11]: 2.7 µM
IC50 ([6]; enzyme assay): 0.00335 µM

COc1cc(OC)c(-c2cn3ccc(N4CCC(CCN(C)C)CC4)cc3n2)cc1Cl [Example 94, 2-(1-(2-(5-chloro-2,4-dimethoxyphenyl)imidazo[1,2-a]pyridin-7-yl)piperidin-4-yl)-N,N-dimethylethanamine]
IC50 [1, 7]: 2.5 µM
IC50 [2, 8]: 3.6 µM
IC50 [3, 9]: 2.7 µM
IC50 [4, 10]: 4.5 µM
IC50 [5, 11]: 2.3 µM
IC50 ([6]; enzyme assay): 0.00887 µM

COc1cc(OC)c(-c2cn3ccc(N4CCN(CC#N)CC4)cc3n2)cc1Cl [Example 95, 2-(4-(2-(5-chloro-2,4-dimethoxyphenyl)imidazo[1,2-a]pyridin-7-yl)piperazin-1-yl)acetonitrile]
IC50 [1, 7]: 2.9 µM
IC50 [2, 8]: 5.3 µM
IC50 [3, 9]: 3.4 µM
IC50 [4, 10]: 4.1 µM
IC50 [5, 11]: 3 µM
IC50 ([6]; enzyme assay): 0.00807 µM
